A word on the IC50: it is the concentration that gives 50% inhibition. A word on the EC50: it is the concentration that produces a half-maximal response.

Data on 13 compounds can be found in patent publication US20140107021A1 (priority 2010, published 2014).

Where two headings read alike, the source gives them in different places. Square brackets hold non-standard residues; d marks the D form. Ends that are not written are not given here. Peptide text beside a SMILES is read from it. MCA = alpha-methylhydrocinnamic acid (2-methyl-3-phenylpropanoic acid); PEG 20 kDa = PEG of about 20 kDa linked to Cys (maleimido methoxyPEG); PLA = 3-phenyllactic acid (2-hydroxy-3-phenylpropanoic acid)

In experiment [1] the target is T1, glucagon receptor (Homo sapiens, UniProt P47871). Put plainly: cell-based. Particulars: for IC50(nM) (cΛMP, inhibit 0.2 mM Glucagon): Table L. The text has this: (§1) HEK293 cells co-transfected with the receptor and luciferase gene linked to a cAMP responsive element were employed for the bioassay.
(§2) All EC50s and IC50s are reported in the following examples in nM, unless indicated otherwise.

A further experiment has as its target T2, GLP-1 receptor (Homo sapiens, UniProt P43220).
T2 construct: expressed in transfected cells; host or cells: HEK293
Put plainly: cAMP induction at the GLP-1 receptor (agonist activity), firefly luciferase reporter assay in HEK293 cells. It is filed as cell-based.
Excerpt: as §1, §2

Experiment [2] has as its target T1, glucagon receptor. Put plainly: cAMP induction at the glucagon receptor (agonist activity), luciferase reporter assay in HEK293 cells. It is filed as cell-based. Also on record: expressed in transfected cells; host or cells: HEK293. Particulars: Table E; read-out: cAMP Induction EC50.
Excerpt: as §1, §2

T1 sequence (P47871 26-477): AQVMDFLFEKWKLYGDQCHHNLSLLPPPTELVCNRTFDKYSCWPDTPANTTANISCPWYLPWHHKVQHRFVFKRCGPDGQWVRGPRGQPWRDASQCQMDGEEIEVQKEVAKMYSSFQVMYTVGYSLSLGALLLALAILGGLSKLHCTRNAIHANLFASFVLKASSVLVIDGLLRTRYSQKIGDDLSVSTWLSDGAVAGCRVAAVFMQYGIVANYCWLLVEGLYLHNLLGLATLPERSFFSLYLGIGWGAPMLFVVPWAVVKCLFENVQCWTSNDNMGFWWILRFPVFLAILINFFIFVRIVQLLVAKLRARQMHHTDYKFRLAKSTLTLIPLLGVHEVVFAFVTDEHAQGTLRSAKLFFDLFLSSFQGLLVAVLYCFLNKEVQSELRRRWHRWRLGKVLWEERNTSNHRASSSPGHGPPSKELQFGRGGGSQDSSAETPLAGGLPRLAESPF
T2 sequence (P43220 24-463): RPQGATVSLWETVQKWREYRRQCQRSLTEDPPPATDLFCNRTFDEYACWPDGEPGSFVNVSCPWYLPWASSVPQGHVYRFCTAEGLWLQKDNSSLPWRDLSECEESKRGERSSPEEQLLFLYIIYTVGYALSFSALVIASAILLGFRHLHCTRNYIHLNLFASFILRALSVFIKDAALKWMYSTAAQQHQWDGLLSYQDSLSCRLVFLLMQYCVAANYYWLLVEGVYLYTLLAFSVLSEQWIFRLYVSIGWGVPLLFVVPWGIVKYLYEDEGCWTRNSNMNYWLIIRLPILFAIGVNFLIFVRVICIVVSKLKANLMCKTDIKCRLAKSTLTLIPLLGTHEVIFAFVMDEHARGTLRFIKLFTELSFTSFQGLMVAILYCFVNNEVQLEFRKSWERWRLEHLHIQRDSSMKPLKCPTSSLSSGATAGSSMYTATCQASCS

As to `CSCC[C@H](NC(=O)[C@H](CC(C)C)NC(=O)[C@H](Cc1c[nH]c2ccccc12)NC(=O)[C@H](CCC(N)=O)NC(=O)[C@@H](NC(=O)[C@H](Cc1ccccc1)NC(=O)[C@H](CC(=O)O)NC(=O)[C@@H]1CCCCNC(=O)CC[C@H](NC(=O)[C@H](CC(=O)O)NC(=O)[C@H](CC(C)C)NC(=O)[C@H](Cc2ccc(O)cc2)NC(=O)[C@H](CCCCN)NC(=O)[C@H](CO)NC(=O)[C@H](Cc2ccc(O)cc2)NC(=O)[C@H](CCC(=O)O)NC(=O)[C@H](CO)NC(=O)[C@@H](NC(=O)[C@H](Cc2ccccc2)NC(=O)[C@@H](NC(=O)CNC(=O)[C@H](CCC(=O)O)NC(=O)[C@H](C)N)[C@@H](C)O)[C@@H](C)O)C(=O)N[C@@H](CCCNC(=N)N)C(=O)N[C@@H](CCCNC(=N)N)C(=O)N[C@@H](C)C(=O)N1)C(C)C)C(=O)N[C@@H](CC(=O)O)C(=O)N[C@H](C(N)=O)[C@@H](C)O` [[A2E3, E16K20(Lactam),D28]G(2~29)], at glucagon receptor [1] (read-out: Glucagon IC50, Table B), the IC50 was found to be 63 nM.
For `CSCC[C@H](NC(=O)[C@H](CC(C)C)NC(=O)[C@H](Cc1c[nH]c2ccccc12)NC(=O)[C@H](CCC(N)=O)NC(=O)[C@@H](NC(=O)[C@H](Cc1ccccc1)NC(=O)[C@H](CC(=O)O)NC(=O)[C@H](CCC(N)=O)NC(=O)[C@H](C)NC(=O)[C@H](CCCNC(=N)N)NC(=O)[C@H](CCCNC(=N)N)NC(=O)[C@@H]1CCC(=O)NCCCC[C@H](NC(=O)[C@H](CO)NC(=O)[C@H](Cc2ccc(O)cc2)NC(=O)[C@H](CC(=O)O)NC(=O)[C@H](CO)NC(=O)[C@@H](NC(=O)[C@@H](O)Cc2ccccc2)[C@@H](C)O)C(=O)N[C@@H](Cc2ccc(O)cc2)C(=O)N[C@@H](CC(C)C)C(=O)N[C@@H](CC(=O)O)C(=O)N1)C(C)C)C(=O)N[C@@H](CC(=O)O)C(=O)N[C@H](C(N)=O)[C@@H](C)O` [[PLA6, D9, K12E16(Lactam), D28]G(6-29)] (HELM PEPTIDE1{[O=C([C@@H](O)Cc1ccccc1)[*:2]].T.S.D.Y.S.K.Y.L.D.E.R.R.A.Q.D.F.V.Q.W.L.M.D.T.[am]}$PEPTIDE1,PEPTIDE1,7:R3-11:R3$$$V2.0), at glucagon receptor [1] (Glucagon IC50 (nM), Table B), the midpoint of inhibition, the IC50, lay at 63 nM.
For `CSCC[C@H](NC(=O)[C@H](CC(C)C)NC(=O)[C@H](Cc1c[nH]c2ccccc12)NC(=O)[C@H](CCC(N)=O)NC(=O)[C@@H](NC(=O)[C@H](Cc1ccccc1)NC(=O)[C@H](CC(=O)O)NC(=O)[C@@H]1CCCCNC(=O)CC[C@H](NC(=O)[C@H](CC(=O)O)NC(=O)[C@H](CC(C)C)NC(=O)[C@H](Cc2ccc(O)cc2)NC(=O)[C@H](CCCCN)NC(=O)[C@H](CO)NC(=O)[C@H](Cc2ccc(O)cc2)NC(=O)[C@H](CCC(=O)O)NC(=O)[C@H](CO)NC(=O)[C@@H](NC(=O)[C@@H](O)Cc2ccccc2)[C@@H](C)O)C(=O)N[C@@H](CCCNC(=N)N)C(=O)N[C@@H](CCCNC(=N)N)C(=O)N[C@@H](C)C(=O)N1)C(C)C)C(=O)N[C@@H](CC(N)=O)C(=O)N[C@H](C(=O)NCC(=O)N1CCC[C@H]1C(=O)N[C@@H](CO)C(=O)N[C@@H](CO)C(=O)NCC(=O)N[C@@H](C)C(=O)N1CCC[C@H]1C(=O)N1CCC[C@H]1C(=O)N1CCC[C@H]1C(=O)N[C@@H](CO)C(N)=O)[C@@H](C)O` [[PLA6, E9, E16K20(Lactam)]], the EC50 on GLP-1 receptor (GLP-1 EC50 (nM), Table C) turned out to be 20 nM; on GLP-1 receptor (GLP-1 ECso (nM), Table A), 20 nM. The IC50 amounted to 20 nM against glucagon receptor [1] (Glu ICso (nM), Table A, Glu = glucagon) and 20 nM on glucagon receptor [1] (Glucagon IC50 (nM), Table C).
As to `CSCC[C@H](NC(=O)[C@H](CC(C)C)NC(=O)[C@H](Cc1c[nH]c2ccccc12)NC(=O)[C@H](CCC(N)=O)NC(=O)[C@@H](NC(=O)[C@H](Cc1ccccc1)NC(=O)[C@H](CC(=O)O)NC(=O)[C@H](CCC(N)=O)NC(=O)[C@H](C)NC(=O)[C@H](CCCNC(=N)N)NC(=O)[C@H](CCCNC(=N)N)NC(=O)[C@H](CO)NC(=O)[C@H](CC(=O)O)NC(=O)[C@H](CC(C)C)NC(=O)[C@H](Cc1ccc(O)cc1)NC(=O)[C@H](CCCCN)NC(=O)[C@H](CO)NC(=O)[C@H](Cc1ccc(O)cc1)NC(=O)[C@H](CCC(=O)O)NC(=O)[C@H](CO)NC(=O)[C@@H](NC(=O)[C@H](Cc1ccccc1)NC(=O)[C@@H](NC(=O)[C@@H](O)Cc1ccccc1)[C@@H](C)O)[C@@H](C)O)C(C)C)C(=O)N[C@@H](CC(N)=O)C(=O)N[C@H](C(N)=O)[C@@H](C)O` [[PLA^4, E^9]Glucagon(aa4-29)-NH2] (HELM PEPTIDE1{[O=C([C@@H](O)Cc1ccccc1)[*:2]].T.F.T.S.E.Y.S.K.Y.L.D.S.R.R.A.Q.D.F.V.Q.W.L.M.N.T.[am]}$$$$V2.0), on glucagon receptor [1] (IC50(nM) (cAMP, inhibit 0.8 mM Glucagon), Table K, inhibit 0.8 mM Glucagon), half-maximal inhibition (IC50) was put at 84.4 ± 19.5 nM.
`CC(C)C[C@H](NC(=O)[C@H](Cc1ccc(O)cc1)NC(=O)[C@H](CCCCN)NC(=O)[C@H](CO)NC(=O)[C@H](Cc1ccc(O)cc1)NC(=O)[C@H](CCS(=O)(=O)O)NC(=O)[C@H](CO)NC(=O)[C@@H](NC(=O)[C@H](Cc1ccccc1)NC(=O)[C@@H](NC(=O)[C@H](CC(C)C)NC(=O)[C@H](CCC(N)=O)NC(=O)[C@@H](N)CO)[C@@H](C)O)[C@@H](C)O)C(=O)N[C@@H](CC(=O)O)C(=O)N[C@@H](CO)C(=O)N[C@@H](CCCNC(=N)N)C(=O)N[C@@H](CCCNC(=N)N)C(=O)N[C@@H](C)C(=O)N[C@@H](CCC(N)=O)C(=O)N[C@@H](CC(=O)O)C(=O)N[C@@H](Cc1ccccc1)C(=O)N[C@H](C(=O)N[C@@H](CCC(N)=O)C(=O)N[C@@H](Cc1ccccc1)C(=O)N[C@@H](CC(C)C)C(=O)N[C@@H](CC(C)C)C(=O)N[C@@H](CC(N)=O)C(=O)N[C@H](C(N)=O)[C@@H](C)O)C(C)C` [[desHis^1, Leu^4, hCys^9(SO3—), Phe^25, Leu^27]Glucagon-NH2] (HELM PEPTIDE1{S.Q.L.T.F.T.S.[O=C([C@H](CCS(=O)(=O)O)N[*:1])[*:2]].Y.S.K.Y.L.D.S.R.R.A.Q.D.F.V.Q.F.L.L.N.T.[am]}$$$$V2.0): the EC50 at glucagon receptor [2] was found to be 1610 ± 1130 nM.
In turn, `CSCC[C@H](NC(=O)[C@H](CC(C)C)NC(=O)[C@H](Cc1c[nH]c2ccccc12)NC(=O)[C@H](CCC(N)=O)NC(=O)[C@@H](NC(=O)[C@H](Cc1ccccc1)NC(=O)[C@H](CC(=O)O)NC(=O)[C@H](CCC(N)=O)NC(=O)[C@H](C)NC(=O)[C@H](CCCNC(=N)N)NC(=O)[C@H](CCCNC(=N)N)NC(=O)[C@H](CO)NC(=O)[C@H](CC(=O)O)NC(=O)[C@H](CC(C)C)NC(=O)[C@H](Cc1ccc(O)cc1)NC(=O)[C@H](CCCCN)NC(=O)[C@H](CO)NC(=O)[C@H](Cc1ccc(O)cc1)NC(=O)[C@H](CCS(=O)(=O)O)NC(=O)[C@H](CO)NC(=O)[C@@H](NC(=O)[C@H](Cc1ccccc1)NC(=O)[C@@H](NC(=O)CN)[C@@H](C)O)[C@@H](C)O)C(C)C)C(=O)N[C@@H](CC(N)=O)C(=O)N[C@H](C(N)=O)[C@@H](C)O` [[hCys^9(SO3H)]Glucagon(aa4-29)-NH2] (HELM PEPTIDE1{G.T.F.T.S.[O=C([C@H](CCS(=O)(=O)O)N[*:1])[*:2]].Y.S.K.Y.L.D.S.R.R.A.Q.D.F.V.Q.W.L.M.N.T.[am]}$$$$V2.0; N-terminus assumed) had a Kb on glucagon receptor [1] of 60.3 nM.
For the compound `CSCC[C@H](NC(=O)[C@H](CC(C)C)NC(=O)[C@H](Cc1c[nH]c2ccccc12)NC(=O)[C@H](CCC(N)=O)NC(=O)[C@@H](NC(=O)[C@H](Cc1ccccc1)NC(=O)[C@H](CC(=O)O)NC(=O)[C@H](CCC(N)=O)NC(=O)[C@H](C)NC(=O)[C@H](CCCNC(=N)N)NC(=O)[C@H](CCCNC(=N)N)NC(=O)[C@H](CO)NC(=O)[C@H](CC(=O)O)NC(=O)[C@H](CC(C)C)NC(=O)[C@H](Cc1ccc(O)cc1)NC(=O)[C@H](CCCCN)NC(=O)[C@H](CO)NC(=O)[C@H](Cc1ccc(O)cc1)NC(=O)[C@H](CCS(=O)(=O)O)NC(=O)[C@H](CO)NC(=O)[C@@H](NC(=O)[C@H](Cc1ccccc1)NC(=O)[C@@H](N)[C@@H](C)O)[C@@H](C)O)C(C)C)C(=O)N[C@@H](CC(N)=O)C(=O)N[C@H](C(N)=O)[C@@H](C)O` [[hCys^9(SO3H)]Glucagon(aa5-29)-NH2] (HELM PEPTIDE1{T.F.T.S.[O=C([C@H](CCS(=O)(=O)O)N[*:1])[*:2]].Y.S.K.Y.L.D.S.R.R.A.Q.D.F.V.Q.W.L.M.N.T.[am]}$$$$V2.0; N-terminus assumed), the Kb at glucagon receptor [1] was 170 nM.
For the compound “FTSDYSKYLDSRRAQDFVQWLMNT-NH2 [Glucagon(aa6-29)-NH2]”, at glucagon receptor [1], the Kb is 115 nM, the “cAMP (I/A)50” value amounted to 1730 and the “cAMP pA2” value was determined as 6.94 ± 0.63.
At glucagon receptor [1], “GTFTSEYSKYLDSRRAQDFVQWLMNT-NH2 [[Glu^9]Glucagon(aa4-29)-NH2]” gave a Kb of 89.1 nM.
Consider “H-FTSKYSKYLDSRRAQDFVQWLMNT-NH2 [[Lys^9]Glucagon(aa6-29)-NH2]”, for which, on glucagon receptor [1], the Kb was 263 nM, the “cAMP (I/A)50” value is recorded as 1990 and the “cAMP pA2” value stood at 6.58 ± 0.60.
Turning to “HSQGTFTSDYARYLDARRAREFIKWLVRGRG [ANK2 (Bayer peptide), reference compound]”, the “Glucagon IC50 (nM)” value at glucagon receptor [1] (Table B) is “agonist”.
Take “[MCA6, E9, C24(20 kDaPEG)]Glucagon(aa6-29)-NII2 ([MCA]TSEYSKYLDSRRAQDFVC(PEG 20 kDa)WLMNT-NH2)”: in the experiment with glucagon receptor [1], the “IC50(nM) (cΛMP, inhibit 0.2 mM Glucagon)” value was “no antagonism”.
In the case of “[PLA6, C8(1.2 kDaPEG), E9]Glucagon(aa6-29)-NH2 ({PLA}-TC(PEG 1.2 kDa)EYSKYLDSRRAQDFVQWLMNT-NH2)”, the “IC50(nM) (cΛMP, inhibit 0.2 mM Glucagon)” value with glucagon receptor [1] is “no antagonism”.
